From US12312332B2 (Merck Sharp & Dohme LLC., priority 2019, dated 2025) come the findings set out here.

SMILES strings stand for the structures.

For the test, the target named is T1, human OX2R (Homo sapiens, UniProt O43614).
T1 construct: expressed in transfected cells; host or cells: Chinese hamster ovary (CHO) cells, kept under G418 selection
T1 sequence (O43614 1-444): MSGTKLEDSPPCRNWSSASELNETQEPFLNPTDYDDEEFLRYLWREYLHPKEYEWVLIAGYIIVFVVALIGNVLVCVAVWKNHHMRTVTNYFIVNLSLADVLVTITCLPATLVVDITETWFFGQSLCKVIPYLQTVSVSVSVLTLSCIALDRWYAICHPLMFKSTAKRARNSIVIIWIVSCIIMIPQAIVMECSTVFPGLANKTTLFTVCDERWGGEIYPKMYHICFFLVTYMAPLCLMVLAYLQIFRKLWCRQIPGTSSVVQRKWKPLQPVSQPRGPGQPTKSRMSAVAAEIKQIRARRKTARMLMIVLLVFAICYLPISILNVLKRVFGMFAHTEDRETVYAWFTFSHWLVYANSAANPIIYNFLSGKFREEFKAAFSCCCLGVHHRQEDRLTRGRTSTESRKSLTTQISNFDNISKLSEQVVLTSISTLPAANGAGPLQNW
In words: IPOne (IP-One) orexin receptor agonist assay in CHO cells expressing human OX2R. In kind it is cell-based. As to conditions: for EC50: CHO cells expressing human OX2R, IP-One detection, 2 hours incubation, four parameter logistic fit, read-out: OX2R Potency, EC50; for % max agonist effect (Emax): human OX2R, percentage of sample raw value/mean max effect (reference compound at 1 uM with 100% activity).

As usually defined, the EC50 is the concentration giving half of the maximal effect. For the compound `Cc1cc(N2CC[C@H](NS(C)(=O)=O)[C@@H]2CO[C@H]2CC[C@@H](c3ccccc3)CC2)cnc1CO` [Example 45, N-((2R,3S)-1-(6-(hydroxymethyl)-5-methylpyridin-3-yl)-2-((((CIS)-4-phenylcyclohexyl)oxy)methyl)pyrrolidin-3-yl)methanesulfonamide], the EC50 was found to be 1.41 µM and the “% max agonist effect (Emax)” value came out at 97.2%.
In the case of `Cn1ccc(=O)c(F)c1N1CC[C@H](NS(C)(=O)=O)[C@@H]1CO[C@H]1CC[C@@H](c2ccccc2)CC1` [Example 86, N-((2R,3S)-1-(3-fluoro-1-methyl-4-oxo-1,4-dihydropyridin-2-yl)-2-((((CIS)-4-phenylcyclohexyl)oxy)methyl)pyrrolidin-3-yl)methanesulfonamide], the EC50 turned out to be 0.148 µM and the “% max agonist effect (Emax)” value worked out at 99.9%.
Regarding `COc1ccnc(N2CC[C@H](NS(C)(=O)=O)[C@@H]2CO[C@H]2CC[C@@H](c3ccccc3)CC2)c1F` [Example 115, N-((2R,3S)-1-(3-fluoro-4-methoxypyridin-2-yl)-2-((((CIS)-4-phenylcyclohexyl)oxy)methyl)pyrrolidin-3-yl)methanesulfonamide], the EC50 came out at 2.41 µM and the “% max agonist effect (Emax)” value amounted to 93.7%.
Turning to `Cc1c(N2CC[C@H](NS(C)(=O)=O)[C@@H]2CO[C@H]2CC[C@@H](c3ccccc3)CC2)cnn1C` [Example 30, N-((2R,3S)-1-(1,5-dimethyl-1H-pyrazol-4-yl)-2-((((CIS)-4-phenylcyclohexyl)oxy)methyl)pyrrolidin-3-yl)methanesulfonamide], the half-maximal effective concentration (EC50) came out at 0.149 µM and the “% max agonist effect (Emax)” value is recorded as 100.0%.
`CS(=O)(=O)N[C@H]1CCN(c2ncccn2)[C@H]1CO[C@H]1CC[C@@H](c2ccccc2)CC1` [Example 38, N-((2R,3S)-2-((((CIS)-4-phenylcyclohexyl)oxy)methyl)-1-(pyrimidin-2-yl)pyrrolidin-3-yl)methanesulfonamide]: the EC50 came to 0.784 µM and the “% max agonist effect (Emax)” value is reported as 97.1%.
Regarding `COc1c(F)cnc(N2CC[C@H](NS(C)(=O)=O)[C@@H]2CO[C@H]2CC[C@@H](c3cccc(F)c3)CC2)c1F` [Example 100, N-((2R,3S)-1-(3,5-difluoro-4-methoxypyridin-2-yl)-2-((((CIS)-4-(3-fluorophenyl)cyclohexyl)oxy)methyl)pyrrolidin-3-yl)methanesulfonamide], the EC50 worked out at 0.716 µM and the “% max agonist effect (Emax)” value was 99.6%.
With `Cc1ncccc1N1CC[C@H](NS(C)(=O)=O)[C@@H]1CO[C@H]1CC[C@@H](c2ccccc2)CC1` [Example 82, N-((2R,3S)-1-(2-methylpyridin-3-yl)-2-((((CIS)-4-phenylcyclohexyl)oxy)methyl)pyrrolidin-3-yl)methanesulfonamide], the EC50 stood at 3.36 µM and the “% max agonist effect (Emax)” value turned out to be 92.4%.
Regarding `CS(=O)(=O)N[C@H]1CCN(c2cc(=O)c(F)cn2CC(F)F)[C@H]1CO[C@H]1CC[C@@H](c2ccccc2)CC1` [Example 89, N-((2R,3S)-1-(1-(2,2-difluoroethyl)-5-fluoro-4-oxo-1,4-dihydropyridin-2-yl)-2-((((CIS)-4-phenylcyclohexyl)oxy)methyl)pyrrolidin-3-yl)methanesulfonamide], the concentration for a half-maximal effect (EC50) was determined as 0.108 µM and the “% max agonist effect (Emax)” value came out at 98.9%.
In the same order, the values of `CS(=O)(=O)N[C@H]1CCN(c2ccncc2)[C@H]1CO[C@H]1CC[C@@H](c2ccccc2)CC1` [Example 57, N-((2R,3S)-2-((((CIS)-4-phenylcyclohexyl)oxy)methyl)-1-(pyridin-4-yl)pyrrolidin-3-yl)methanesulfonamide] are 4.05 µM and 87.6%.
Turning to `CS(=O)(=O)N[C@H]1CCN(c2cncc(O)n2)[C@H]1CO[C@H]1CC[C@@H](c2ccccc2)CC1` [Example 149, N-((2R,3S)-1-(6-hydroxypyrazin-2-yl)-2-((((CIS)-4-phenylcyclohexyl)oxy)methyl)pyrrolidin-3-yl)methanesulfonamide], the EC50 is 0.258 µM and the “% max agonist effect (Emax)” value is on record as 97.7%.
Regarding `CS(=O)(=O)N[C@H]1CCN(c2ncc(CO)s2)[C@H]1CO[C@H]1CC[C@@H](c2ccccc2)CC1` [Example 102, N-((2R,3S)-1-(5-(hydroxymethyl)thiazol-2-yl)-2-((((CIS)-4-phenylcyclohexyl)oxy)methyl)pyrrolidin-3-yl)methanesulfonamide], the EC50 came to 4.83 µM and the “% max agonist effect (Emax)” value stood at 67.4%.
For `CS(=O)(=O)N[C@H]1CCN(c2cncc(CO)c2)[C@H]1CO[C@H]1CC[C@@H](c2ccccc2)CC1` [Example 49, N-((2R,3S)-1-(5-(hydroxymethyl)pyridin-3-yl)-2-((((CIS)-4-phenylcyclohexyl)oxy)methyl)pyrrolidin-3-yl)methanesulfonamide], the EC50 came out at 0.217 µM and the “% max agonist effect (Emax)” value is reported as 99.6%.
On the same counts, the results for `CS(=O)(=O)N[C@H]1CCN(c2cc(O)c(F)cn2)[C@H]1CO[C@H]1CC[C@@H](c2ccccc2)CC1` [Example 151, N-((2R,3S)-1-(5-fluoro-4-hydroxypyridin-2-yl)-2-((((CIS)-4-phenylcyclohexyl)oxy)methyl)pyrrolidin-3-yl)methanesulfonamide] are 0.00095 µM and 97.7%.
As for `CS(=O)(=O)N[C@H]1CCCN(c2nccc(O)c2F)[C@H]1CO[C@H]1CC[C@@H](c2ccccc2)CC1` [Example 158, N-((2R,3S)-1-(3-fluoro-4-hydroxypyridin-2-yl)-2-((((CIS)-4-phenylcyclohexyl)oxy)methyl)piperidin-3-yl)methanesulfonamide], the EC50 was 0.0325 µM and the “% max agonist effect (Emax)” value is recorded as 99.7%.
Consider `CS(=O)(=O)N[C@H]1CCN(c2ccc(=O)n(C(F)F)c2)[C@H]1CO[C@H]1CC[C@@H](c2ccccc2)CC1` [Example 23, N-((2R,3S)-1-(1-(difluoromethyl)-6-oxo-1,6-dihydropyridin-3-yl)-2-((((CIS)-4-phenylcyclohexyl)-oxy)methyl)pyrrolidin-3 - yl)methanesulfonamide], for which the EC50 came out at 4.64 µM and the “% max agonist effect (Emax)” value is listed as 81.2%.
As for `Cn1cnc(N2CC[C@H](NS(C)(=O)=O)[C@@H]2CO[C@H]2CC[C@@H](c3ccccc3)CC2)n1` [Example 14, N-((2R,3S)-1-(1-Methyl-1H-1,2,4-triazol-3-yl)-2-((((CIS)-4-phenylcyclohexyl)oxy)methyl)-pyrrolidin-3-yl)methanesulfonamide], the EC50 was 3.72 µM and the “% max agonist effect (Emax)” value is 87.9%.
For the compound `CS(=O)(=O)N[C@H]1CCN(c2ccc(C(F)(F)F)cn2)[C@H]1CO[C@H]1CC[C@@H](c2ccccc2)CC1` [Example 130, N-((2R,3S)-2-((((CIS)-4-phenylcyclohexyl)oxy)methyl)-1-(5-(trifluoromethyl)pyridin-2-yl)pyrrolidin-3-yl)methanesulfonamide], the EC50 was found to be 4 µM and the “% max agonist effect (Emax)” value was determined as 70.8%.
As to `CS(=O)(=O)N[C@H]1CCN(c2cncc(OC(F)F)c2)[C@H]1CO[C@H]1CC[C@@H](c2ccccc2)CC1` [Example 52, N-((2R,3S)-1-(5-(difluoromethoxy)pyridin-3-yl)-2-((((CIS)-4-phenylcyclohexyl)oxy)methyl)pyrrolidin-3-yl)methanesulfonamide], the EC50 amounted to 0.649 µM and the “% max agonist effect (Emax)” value is 99.2%.
Take `Cc1cnc(N2CC[C@H](NS(C)(=O)=O)[C@@H]2CO[C@H]2CC[C@@H](c3ccccc3)CC2)n1C` [Example 29, N-((2R,3S)-1-(1,5-dimethyl-1H-imidazol-2-yl)-2-((((CIS)-4-phenylcyclohexyl)oxy)methyl)pyrrolidin-3-yl)methanesulfonamide]: the 50% effective concentration (EC50) was 0.366 µM and the “% max agonist effect (Emax)” value was found to be 100.0%.
Turning to `Cn1ccc(=O)cc1N1CC[C@H](NS(C)(=O)=O)[C@@H]1CO[C@H]1CC[C@@H](c2ccccc2)CC1` [Example 87, N-((2R,3S)-1-(1-methyl-4-oxo-1,4-dihydropyridin-2-yl)-2-((((CIS)-4-phenylcyclohexyl)oxy)methyl)pyrrolidin-3-yl)methanesulfonamide], the EC50 amounted to 0.0524 µM and the “% max agonist effect (Emax)” value was 102.3%.
On the same counts, the results for `CS(=O)(=O)N[C@H]1CCN(c2ccncc2C(F)(F)F)[C@H]1CO[C@H]1CC[C@@H](c2ccccc2)CC1` [Example 70, N-((2R,3S)-2-((((CIS)-4-phenylcyclohexyl)oxy)methyl)-1-(3-(trifluoromethyl)pyridin-4-yl)pyrrolidin-3-yl)methanesulfonamide] are 1.67 µM and 96.0%.
For the compound `C[C@@H]1C[C@H](NS(C)(=O)=O)[C@H](CO[C@H]2CC[C@@H](c3ccccc3)CC2)N1c1nnnn1C` [Example 80, N-((2R,3S,5R)-5-Methyl-1-(1-methyl-1H-tetrazol-5-yl)-2-((((CIS)-4-phenylcyclohexyl)oxy)-methyl)pyrrolidin-3-yl)methanesulfonamide], the EC50 was 0.0018 µM and the “% max agonist effect (Emax)” value was 97.9%.
Turning to `COC(=O)c1cnc(N2CC[C@H](NS(C)(=O)=O)[C@@H]2CO[C@H]2CC[C@@H](c3ccccc3)CC2)s1` [Example 104, methyl 2-((2R,3S)-3-(methylsulfonamido)-2-((((CIS)-4-phenylcyclohexyl)oxy)methyl)pyrrolidin-1-yl)thiazole-5-carboxylate], the half-maximal effective concentration (EC50) came to 1.19 µM and the “% max agonist effect (Emax)” value is 100%.
